In US6451801B1, “Compounds and methods for treatment of asthma, allergy and inflammatory disorders” (UCB, S.A., priority 1999, dated 2002):
Values belong to the molecule of their own block, whether it stands above or below them.

Experiments:
[1] = molecular target: T1, human cloned H1 receptor (Homo sapiens, UniProt P35367); test: CHO-K1 H1R binding assay; conditions: 3H-pyrilamine 2 nM, CHO-K1 membranes, 3 hours at 37° C.; read-out: CHOH1 K1
T1 construct: expressed in transfected cells; host or cells: CHO-K1
T1 sequence (P35367 whole entry): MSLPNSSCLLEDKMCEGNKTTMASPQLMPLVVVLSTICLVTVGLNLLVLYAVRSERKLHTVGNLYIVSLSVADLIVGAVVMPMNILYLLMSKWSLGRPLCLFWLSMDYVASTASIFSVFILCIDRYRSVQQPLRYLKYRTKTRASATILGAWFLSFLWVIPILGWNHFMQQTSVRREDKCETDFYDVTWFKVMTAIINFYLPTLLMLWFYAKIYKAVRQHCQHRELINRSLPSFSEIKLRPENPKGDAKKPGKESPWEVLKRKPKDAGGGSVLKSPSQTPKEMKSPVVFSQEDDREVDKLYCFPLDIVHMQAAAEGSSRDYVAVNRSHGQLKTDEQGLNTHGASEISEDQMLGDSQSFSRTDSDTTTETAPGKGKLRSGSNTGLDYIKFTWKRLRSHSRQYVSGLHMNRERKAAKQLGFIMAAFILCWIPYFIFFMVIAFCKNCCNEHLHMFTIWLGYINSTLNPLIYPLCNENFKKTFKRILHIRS
Procedure: CHO-K1 cells expressing the human cloned H1 receptor are grown to confluence in tissue culture dishes. Cells are harvested using D-PBS buffer (JRH Biosciences), kept at 4° C., centrifuging to pellet cells (4° C., 500 g, 10 min). The final cell pellet is homogenized and resuspended using Tris/sucrose buffer (20 mM Tris, 250 mM sucrose, pH 7.4 at 4° C.). Aliquots of the membrane preparation are stored at −70° C.
On the day of assay, the membrane preparation is thawed and centrifuged (TLA100.3 rotor, 4° C., 15 min, 23,000 rpm). The pellet is resuspended in Tris/sucrose buffer initially and then diluted further as necessary using assay buffer A (50 mM Na/KPO4, 2 mM MgCl2, 0.5% (w/v) BSA, pH 7.5).
For the binding assay, the membrane preparation, test compound and ^3H-pyrilamine (2 nM final) in buffer A with 1% (v/v) DMSO final are incubated in a 96-well polypropylene plate for 3 hours at 37° C. Non-specific binding is determined in the presence of 10 μM pyrilamine. A 96-well harvester (Packard) is used to harvest the 96-well plate onto a GF/B filter plate pre-treated with 0.1% (v/v) PEI. The plate is counted in a Packard Topcounter after adding Microscint 20 (Packard) scintillation fluid. The Ki for each compound at the histamine H1 receptor is then calculated from these counts.

[2] = molecular target: T2, human 5-lipoxygenase enzyme (Homo sapiens, UniProt P09917); test: Inhibition of LTB4 production in human whole blood; type: cell-based; conditions: human whole blood, calcium ionophore A23187 50 μM, LTB4 by EIA; read-out: HWB IC50
T2 construct: endogenous in cells; host or cells: human whole blood (leukocytes) stimulated with A23187
T2 sequence (P09917 1-674): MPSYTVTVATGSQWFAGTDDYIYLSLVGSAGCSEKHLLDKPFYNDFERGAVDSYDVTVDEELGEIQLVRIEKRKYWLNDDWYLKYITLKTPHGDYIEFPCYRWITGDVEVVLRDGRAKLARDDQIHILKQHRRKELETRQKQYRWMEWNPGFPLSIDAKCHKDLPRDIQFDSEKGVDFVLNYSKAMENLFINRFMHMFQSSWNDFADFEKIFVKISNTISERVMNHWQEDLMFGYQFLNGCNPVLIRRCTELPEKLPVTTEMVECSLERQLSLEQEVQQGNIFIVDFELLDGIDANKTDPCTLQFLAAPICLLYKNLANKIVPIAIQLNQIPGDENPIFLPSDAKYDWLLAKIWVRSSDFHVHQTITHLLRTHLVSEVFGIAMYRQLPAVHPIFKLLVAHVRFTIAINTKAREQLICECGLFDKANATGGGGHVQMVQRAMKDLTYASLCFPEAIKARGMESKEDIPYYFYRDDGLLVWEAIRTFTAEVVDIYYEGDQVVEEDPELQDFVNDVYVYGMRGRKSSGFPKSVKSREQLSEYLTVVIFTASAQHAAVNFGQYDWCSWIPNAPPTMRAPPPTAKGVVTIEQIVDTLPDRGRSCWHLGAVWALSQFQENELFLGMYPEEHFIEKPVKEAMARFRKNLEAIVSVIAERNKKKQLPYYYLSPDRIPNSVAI
Procedure: This assay examines the ability of a compound to inhibit leukotriene B4 production from human blood stimulated with calcium ionophore. As this production of leukotriene B4 is mediated via the activation of the 5-lipoxygenase enzyme, this assay is predictive of a compound's ability to inhibit the human 5-lipoxygenase enzyme.
The procedure for the assay is as follows. Blood is drawn from normal human volunteers into tubes containing heparin. 1 ml of the heparinized blood is pipetted into a 1.5 ml polypropylene tube. To this sample is added either different concentrations of the test compound (5 μl) dissolved in DMSO or 5 μl of DMSO as a vehicle control. These samples are incubated in a water bath, at 37° C. for 15 min. 5 μl of the calcium ionophore A23187 (at a final concentration of 50 μM) is then added to each sample, which is vortexed and placed back in the water bath for 30 min. The samples are then centrifuged at 2500 rpm for 10 min. at 4° C. 50 μl of the supernatant is transferred into pre-cooled Eppendorf tubes containing 950 μl of enzyme immunoassay (EIA) buffer. A commercially available EIA kit (Cayman Chemical Co., Ann Arbor, Mich., USA) is used to subsequently measure the LTB4 production in the samples. The LTB4 levels produced in the vehicle control sample is then compared to those in which the test compound has been added. From this a percent inhibition of LTB4 production by each concentration of test compound is calculated and the IC50 for inhibition of LTB4 production for each test compound is determined.

[3] = test system: histamine-induced bronchoconstriction; test: Antihistaminergic activity in vivo (histamine-induced bronchoconstriction); conditions: Cavia porcellus, guinea pig, oral, 2 mg/kg
Procedure: Male, Hartley guinea pigs are obtained from Charles River Labs at a body weight of 350 -400 grams. Inhibition of histamine activity is measured by the method of Konzett and Rössler (Naonyn-Schmiedebergs Arch. Exp. Path. Pharmakol. 195, 71-74 (1940). Anaethetized guinea pigs are subjected to artificial ventilation. The endotracheal pressure is recorded. Bronchoconstriction is induced by successive intravenous injections of histamine. The test compounds are administered orally in a 1% methocellulose suspension at set timepoints prior to the administration of histamine.
The results (Table 2) show the percent inhibition of histamine-induced bronchoconstriction by selected compounds at multiple time points post oral dosing. 50% inhibition or greater is considered significant.

[4] = test system: 5-lipoxygenase; test: 5-Lipoxygenase inhibitory activity in vivo; conditions: guinea pig, oral, 2 mg/kg
Procedure: Male, Hartley guinea pigs are obtained from Charles River Labs at a body weight of 350-400 grams. Compounds are prepared at a volume of [1-2 mg/ml] in 1% methocellulose for oral dosing. Animals are separated into groups of five (5). Each assay includes a control group dosed with vehicle. Each group of animals is dosed with either vehicle or compound by oral gavage. Animals are allowed to rest for one, three, or six hours after dosing. Control animals are allowed to rest for three hours. At the appropriate times, the animals are anesthetized with Urethane at 1.5 g/kg, ip. Blood is drawn into a heparinized syringe via cardiac puncture. Blood (0.5 ml) is aliquoted into separately-labeled 1.5 ml eppendorf tubes. Each sample is loaded with 5 μl of [15 mM] Arachidonic Acid, and placed in a 37° C. water bath for five minutes. After five minutes, the blood is stimulated with 5 μl of [5 mM] A23187 (Calcium Ionophore) and retained in the water bath for an additional 30 minutes. After the thirty minutes, the blood samples are removed from the water bath and centrifuged at 14,000 rpm for 2 minutes. Plasma is diluted to EIA buffer and an EIA is performed following manufacturer instructions (Cayman Chemical Co., Ann Arbor, Mich., USA). The results (Table 3) show the percent inhibition of 5-lipoxygenase by selected compounds at multiple time points post oral dosing. 50% inhibition or greater is considered significant.

Ki [1]: 0.015 µM
IC50 [2]: 0.254 µM
Molecule: NC(=O)N(O)CCCCc1ccc(OCCN2CCN([C@H](c3ccccc3)c3ccc(Cl)cc3)CC2)cc1 [Compound 17, N-{4-[4-(2-{4-[(1R) (4-chlorophenyl)phenyl-methyl]piperazinyl}ethoxy)phenyl]butyl} amino-N-hydroxyamide]
inhibition in vivo at 2 mg/kg ([3]; 3 hrs): 66%
inhibition in vivo at 2 mg/kg ([3]; 6 hrs): 73%
% inhibition of 5-lipoxygenase ([4]; 3 hours): 70%
% inhibition of 5-lipoxygenase ([4]; 6 hours): 94%

Ki [1]: 0.12 µM
IC50 [2]: 0.122 µM
Molecule: COC(=O)c1cc(CCCCN(O)C(N)=O)ccc1OCCN1CCN([C@H](c2ccccc2)c2ccc(Cl)cc2)CC1 [Compound 40, methyl2-(2-{4-[(1R) (4-chlorophenyl)phenyl-methyl]piperazinyl}ethoxy)-5-[4-(amino-hydroxycarbonylamino)butyl]benzoate]

Ki [1]: 0.036 µM
IC50 [2]: 0.412 µM
Molecule: NC(=O)N(O)CCCCc1cccc(OCCN2CCN(C(c3ccccc3)c3ccccc3)CC2)c1 [Compound 30, amino-N-[4-(3-{2-[4-(diphenylmethyl)piperazinyl]ethoxy}phenyl)butyl]-N-hydroxyamide]

Ki [1]: 0.01 µM
IC50 [2]: 2.44 µM
Molecule: NC(=O)N(O)Cc1ccc(CCCN2CCN([C@H](c3ccccc3)c3ccc(Cl)cc3)CC2)cc1 [Compound 13, N-{[4-(3-{4-[(1R) (4-chlorophenyl)phenylmethyl]piperazinyl}propyl)phenyl]methyl} amino-N-hydroxyamide]

Ki [1]: 0.002 µM
IC50 [2]: 2.74 µM
Molecule: NC(=O)N(O)CCCCc1ccc(OCCN2CCN([C@H](c3ccccc3)c3ccc(Cl)cc3)CC2)c(C(=O)O)c1 [Compound 43, 2-(2-{4-[(1R)(4-chlorophenyl)phenylmethyl]piperazinyl}ethoxy)-5-[4-(aminohydroxycarbonylamino)butyl] benzoic acid]

Ki [1]: 0.22 µM
IC50 [2]: 5.77 µM
Molecule: NC(=O)N(O)Cc1cccc(C#CCN2CCN([C@H](c3ccccc3)c3ccc(Cl)cc3)CC2)c1 [Compound 8, N-{[3-(3-{4-[(1R) (4-chlorophenyl)phenylmethyl]piperazinyl}prop-1-ynyl)phenyl]methyl} amino-N-hydroxyamide]

Ki [1]: 0.133 µM
IC50 [2]: 0.313 µM
Molecule: NC(=O)N(O)CCC#C[C@@H]1CC[C@@H](CN2CCN([C@H](c3ccccc3)c3ccc(Cl)cc3)CC2)O1 [Compound 46, N-{4-[5-({4-[(1R)(4-chlorophenyl)phenylmethyl]piperazinyl}methyl)(2S,5S)oxolan-2-yl]but-3-ynyl}amino-N-hydroxyamide]

Ki [1]: 0.008 µM
IC50 [2]: 1.47 µM
Molecule: N-[2-(2-{4-[(1R)(4-chlorophenyl)phenylmethyl] piperazinyl}ethoxy)ethyl]amino-N-hydroxyamide [Compound 22]

Ki [1]: 0.42 µM
IC50 [2]: 0.094 µM
Molecule: COC(=O)c1cc(C#CCCN(O)C(N)=O)ccc1OCCN1CCN([C@H](c2ccccc2)c2ccc(Cl)cc2)CC1 [Compound 36, methyl2-(2-{4-[(1R) (4-chlorophenyl)phenyl-methyl]piperazinyl}ethoxy)-5-[4-(amino-hydroxycarbonylamino)but-1-ynyl]benzoate]

Ki [1]: 0.012 µM
IC50 [2]: 4.22 µM
Molecule: NC(=O)N(O)CC#CCN1CCN([C@H](c2ccccc2)c2ccc(Cl)cc2)CC1 [Compound 9, N-(4-{4-[(1R) (4-chlorophenyl)phenylmethyl]piperazinyl}but-2-ynyl) amino-N-hydroxyamide]

Ki [1]: 0.094 µM
IC50 [2]: 2.66 µM
Molecule: NC(=O)N(O)CC#CCN1CCN(C(c2ccc(F)cc2)c2ccc(F)cc2)CC1 [Compound 16, amino-N-(4-{4-[bis(4-fluorophenyl)methyl]piperazinyl}but-2-ynyl)-N-hydroxyamide]

The remaining lines, values behind:

Molecule: NC(=O)N(O)Cc1cccc(OCCN2CCN([C@H](c3ccccc3)c3ccc(Cl)cc3)CC2)c1 [Compound 5, N-{[3-(2-{4-[(1R) (4-chlorophenyl)phenylmethyl]piperazinyl}ethoxy)phenyl]methyl} amino-N-hydroxyamide]
Ki [1]: 0.023 µM
IC50 [2]: 2.04 µM

Molecule: NC(=O)N(O)Cc1ccc(CN2CCN([C@H](c3ccccc3)c3ccc(Cl)cc3)CC2)o1 [Compound 26, N-{[5-({4-[(1R) (4-chlorophenyl)phenylmethyl]piperazinyl}methyl)(2-furyl)]methyl} amino-N-hydroxyamide]
Ki [1]: 0.004 µM
IC50 [2]: 1.71 µM

Molecule: NC(=O)N(O)Cc1ccc(C#CCN2CCN([C@H](c3ccccc3)c3ccc(Cl)cc3)CC2)cc1 [Compound 3, N-{[4-(3-{4-[(1R) (4-chlorophenyl)phenylmethyl]piperazinyl}prop-1-ynyl)phenyl]methyl} amino-N-hydroxyamide]
Ki [1]: 0.26 µM
IC50 [2]: 1.68 µM

Molecule: NC(=O)N(O)CCC#Cc1ccc(OCCN2CCN([C@H](c3ccccc3)c3ccc(Cl)cc3)CC2)cc1 [Compound 12, N-{4-[4-(2-{4-[(1R) (4-chlorophenyl)phenylmethyl]piperazinyl}ethoxy)phenyl]but-3-ynyl} amino-N-hydroxyamide]
IC50 [2]: 0.267 µM
inhibition in vivo at 2 mg/kg ([3]; 3 hrs): 62%
inhibition in vivo at 2 mg/kg ([3]; 6 hrs): 66%
% inhibition of 5-lipoxygenase ([4]; 6 hours): 80%

Molecule: NC(=O)N(O)CCC#Cc1ccc(OCCN2CCN([C@H](c3ccccc3)c3ccc(Cl)cc3)CC2)c(C(=O)O)c1 [Compound 37, 2-(2-{4-[(1R)(4-chlorophenyl)phenyl-methyl]piperazinyl}ethoxy)-5-[4-(amino-hydroxycarbonylamino)but-1-ynyl]benzoic acid]
Ki [1]: 0.004 µM
IC50 [2]: 6.59 µM

Molecule: CN(O)C(=O)NCc1cccc(OCCN2CCN([C@H](c3ccccc3)c3ccc(Cl)cc3)CC2)c1 [Compound 24, N-{[3-(2-{4-[(1R) (4-chlorophenyl)phenylmethyl]piperazinyl}ethoxy)phenyl]methyl} (methyl(hydroxyamino)) carboxamide]
Ki [1]: 0.007 µM
IC50 [2]: 0.253 µM

Molecule: NC(=O)c1cc(CCCCN(O)C(N)=O)ccc1OCCN1CCN([C@H](c2ccccc2)c2ccc(Cl)cc2)CC1 [Compound 42, 2-(2-{4-[(1R)(4-chloro-phenyl)phenylmethyl]piperazinyl}ethoxy)-5-[4-(aminohydroxy-carbonylamino)butyl] benzamide]
Ki [1]: 0.035 µM
IC50 [2]: 0.106 µM

Molecule: NC(=O)N(O)CCOCCN1CCN([C@H](c2ccccc2)c2ccc(Cl)cc2)CC1 (racemic) [Compound 18, amino-N-[2-(2-{4-[(4-chlorophenyl)phenylmethyl]piperazinyl}ethoxy)ethyl]-N-hydroxyamide]
Ki [1]: 0.015 µM
IC50 [2]: 2.1 µM
